Measurements published in patent US20110098295A1, “METHODS OF TREATING ANXIETY, ITCHING AND PSYCHIATRIC DISORDERS” (priority 2009, published 2011).

Tests used:
mice = test: Behavioral itching test (scratching induced by intradermal compound 48/80); format: in vivo
Text: Data are presented as mean±SEM.
Mutant KO mice and littermate wild-type mice were used in the behaviour experiments. Mice were shaved at the back of the neck where intradermal injections of compound 48/80, which releases histamine from the mast cells, were then given.

wild-type mice = test: Open field test, animal model of behavioral anxiety; format: in vivo; parameters: anti-anxiety effects in the open field test: dose or concentration left out as unconfirmed
Text: Animals were placed in the open field immediately after an IP injection. […] B) Mice injected with AC8 inhibitor (filled circles) traveled more than control mice injected with saline (open circles). *P<0.05
A round, green, plastic tub with diameter 43.5 cm was used to create an open arena for the mouse to travel. The floor was made of clear Plexiglas. Each trial consisted of exposing the mouse to a bright light (685 lux) in the arena for the first minute, followed immediately by exposing the mouse only to dim light (1 lux) for another minute. The mouse's movements were captured using video camera tracking software (Ethovision, Noldus Va.) and the distance from the border of the arena, the distance from the centre of the arena, and the total distance traveled were measured. The percent difference in these factors between bright and dim light periods were also calculated. After each 2 min testing session, the mouse was removed and placed back in its home cage and the arena was cleaned with 70% ethanol solution.

[1] = test system: adenylyl cyclase subtype 8; test: Biochemical screening test for AC8 inhibitors (cAMP assay in HEK293 cells expressing ACs); format: cell-based; details: 100 μM
Experimental: (§1) For AC8 expression vector pcDNA3-AC1 transfection, HEK293 cells were plated onto 60-mm-diameter dishes at a density of 1×10^6 per plate, grown overnight and transfected with pcDNA3-AC1 (0.8 μg DNA per plate) by Lipofectamine 2000 (Invitrogen). Stable transfected clones were selected in culture media containing 0.8 mg/ml G418 (Invitrogen, CA) and maintained in this media. For transient expression of other AC isoforms in HEK293 cells, HEK293 cells were plated in 96 well tissue culture dishes and transfected with plasmids for AC5, respectively, experiments were carried out at 48 h after transfection.
(§2) The HEK293 cells expressing ACs were harvested and lysed in 0.1 M HCl after different treatments. Direct cAMP measurements were performed using the direct cAMP enzyme immunoassay kit (Assay Designs, MI) and optical density values were measured at 405 nm by the microplate reader. Phosphodiesterase was inhibited by the addition of 1 mM 3-isobutyl-1 methylxanthine (Sigma, Mo.) to cultures.
The HEK293 cells were subcultured into 96-well plates in the absence of antibiotics and grown overnight and transfected with the pGL3-CRE-firefly luciferase and pGL3-CMV-Renilla luciferase constructs (0.25 μg DNA per well) by Lipofectamine 2000 reagent. The transfected cells were incubated overnight, and media were changed to DMEM containing 10% fetal bovine serum. After 48 h, the cells were treated with 10 μM forskolin, 10 μM A23187 and 2 mM CaCl2, or a combination of 10 μM forskolin, 10 μM A23187 and 2 mM CaCl2, in the absence or presence of each chemical tested at the concentration of 100 μM. At the end of 6 hours, incubation cells were harvested and luciferase activity was assayed by Dual-Luciferase Reporter Assay System (Promega). Relative light units were measured using a SIRIUS luminometer.
A set of biochemical screening tests were carried out to search for potential selective AC8 inhibitors. cAMP assay, gene-activation (pCREB) assay in AC8 expressed cell lines, as well as integrative physiological experiments were employed to screen for potential AC8 inhibitors. The effect of Compound A and B on AC8 was determined.

[2] = target: T1, adenylyl cyclase subtype 5 (Homo sapiens, UniProt O95622); test: Biochemical screening test, AC5 transiently expressed in HEK293 cells; format: cell-based; details: read-out: Percent Inhibition AC5
T1 construct: expressed in transfected cells; host or cells: HEK293 (transient, 48 h)
T1 sequence (O95622 whole entry): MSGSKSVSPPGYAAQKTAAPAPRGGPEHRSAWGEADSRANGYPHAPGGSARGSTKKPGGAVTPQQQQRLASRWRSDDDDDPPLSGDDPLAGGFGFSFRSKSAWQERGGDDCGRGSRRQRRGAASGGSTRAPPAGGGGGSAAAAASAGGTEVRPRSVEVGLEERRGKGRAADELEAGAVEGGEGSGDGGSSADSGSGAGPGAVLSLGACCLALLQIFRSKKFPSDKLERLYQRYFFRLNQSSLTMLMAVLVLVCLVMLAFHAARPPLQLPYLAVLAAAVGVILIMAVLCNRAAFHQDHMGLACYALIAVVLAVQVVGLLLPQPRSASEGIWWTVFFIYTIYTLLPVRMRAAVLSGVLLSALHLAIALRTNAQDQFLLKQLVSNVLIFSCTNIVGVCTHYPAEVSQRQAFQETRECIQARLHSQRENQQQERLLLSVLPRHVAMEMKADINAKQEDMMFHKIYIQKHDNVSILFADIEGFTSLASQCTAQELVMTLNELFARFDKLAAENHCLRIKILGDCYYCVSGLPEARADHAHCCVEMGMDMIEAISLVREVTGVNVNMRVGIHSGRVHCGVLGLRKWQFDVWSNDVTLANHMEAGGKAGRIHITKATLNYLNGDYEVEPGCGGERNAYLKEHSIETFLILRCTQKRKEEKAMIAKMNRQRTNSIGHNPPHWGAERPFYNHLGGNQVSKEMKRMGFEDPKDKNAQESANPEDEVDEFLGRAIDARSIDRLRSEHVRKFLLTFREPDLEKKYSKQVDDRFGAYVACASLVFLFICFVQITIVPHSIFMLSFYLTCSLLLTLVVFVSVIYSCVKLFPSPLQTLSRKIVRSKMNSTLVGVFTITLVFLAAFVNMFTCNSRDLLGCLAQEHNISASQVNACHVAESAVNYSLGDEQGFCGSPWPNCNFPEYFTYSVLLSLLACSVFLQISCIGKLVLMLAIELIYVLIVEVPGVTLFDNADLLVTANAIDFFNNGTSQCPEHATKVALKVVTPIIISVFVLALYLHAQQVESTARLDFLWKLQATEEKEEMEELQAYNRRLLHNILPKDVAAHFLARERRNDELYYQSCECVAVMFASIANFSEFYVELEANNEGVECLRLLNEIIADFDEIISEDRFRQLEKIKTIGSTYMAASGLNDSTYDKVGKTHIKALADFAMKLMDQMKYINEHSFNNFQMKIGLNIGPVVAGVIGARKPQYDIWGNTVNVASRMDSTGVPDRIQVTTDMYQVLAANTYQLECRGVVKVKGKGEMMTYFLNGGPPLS
Experimental: as §1, §2
The HEK293 cells were subcultured into 96-well plates in the absence of antibiotics and grown overnight and transfected with the pGL3-CRE-firefly luciferase and pGL3-CMV-Renilla luciferase constructs (0.25 μg DNA per well) by Lipofectamine 2000 reagent. […] Relative light units were measured using a SIRIUS luminometer.

inhibition at 100 µM [2]	SMILES	total scratching responses induced by intradermal compound 48/80 (100 μg/50 μl) (mice; 5 mg/kg i.p., n=6 mice vs wild-type mice n=7, P<0.05)	anti-itching effects in the itching test (mice; systemic injection 5 mg/kg)	ambulatory counts in open field (wild-type mice; 5 mg/kg, i.p., placed in open field immediately after injection, vs saline, n=6, P<0.05)	distance traveled in open field (wild-type mice; 5 mg/kg, i.p., vs saline, P<0.05)	anti-anxiety effects in the open field test (wild-type mice; systemic injection, n=7 mice)	Percent Inhibition AC8 [1]	inhibition of AC8 activity [1]
25 ± 4%	Cc1ccc(OCCn2c(S)nc3c(N)ncnc32)cc1 [Compound A, 6-amino-9-(2-p-tolyloxy-ethyl)-9H-purine-8-thiol]	significantly reduced	significant anti-itching effects	significantly more ambulatory counts	traveled more	significant anti-anxiety effects	88 ± 2% inhibition	significant inhibition
	c1nc(N2CCOCC2)c2nc[nH]c2n1 [Compound B, 4-(9H-purin-6-yl)morpholine]						86 ± 2%	significant inhibition
